How the values were obtained:
APP/PS1-21 and WT mice = assay: Chronic intraperitoneal treatment: Barnes maze; assay type: in vivo, mouse; conditions: 6-months old
Method: This solution is then diluted to 1 μg/μl in an isotonic solution containing 1% Pluronic F-127 and 0.9% NaCl. The animals are injected daily intraperitoneally at a dose of 5 mg/kg of body mass. Sterile 0.5 ml BD MicroFine syringes with no dead volume, equipped with a 30G (0.3 mm) needle are used for the injections. The injection is started from the 14th postnatal day (appearance of the expression of the Thy1gene promoter in the hippocampus, triggering the overexpression of Aβ in the APP/PS1-21 murine model) The mice were placed in the center of a well-lit open platform (BioSeb, diameter 120 cm). The platform includes 20 holes (diameter 5 cm) with an escape box (target) attached below any of the holes. On the first day of training, the mice were first placed in the middle of the platform and gently guided to the target after 5 minutes of free exploration. Once the mice entered the escape box, they remained there for 1 minute before being returned to their cage. During the 3 days of the training/acquisition phase, the mice performed 3 trials per day with an interval between trials of 20 minutes. The mice had 180 seconds to find the escape box or were gently guided thereto. On day 4 (test day), the escape box was removed and the mice were allowed to freely explore the maze for 60 seconds. The time taken to reach the target (latency) and the exploration time of the target area (target hole±1) were analyzed. All data were recorded and analyzed with EthoVision XT9 (Noldus). The working memory is perhaps one of the most studied aspects of memory impairment in Alzheimer's disease. The inventors administered daily the TRPA1 channel specific inhibitor (HC030031) or the carrier intraperitoneally (5 mg/kg of body mass) from the 14th postnatal day up to 6 months in APP/PS1-21 and wild-type WT mice.

rodent forms of TRPA1 = conditions: McNamara et al. 2007, Eid et al. 2008, read-out: CI50 (the source's name); cited from earlier work
[1] = tested on: CA1 pyramidal neurons of APP/PS1-21 and WT mice; assay: Chronic intraperitoneal treatment: whole-cell recording of sEPSCs of CA1 pyramidal neurons; assay type: in vivo, mouse
Method: The used model is a transgenic murine model obtained on a C57BL/6J genetic background which co-expresses the mutated human form of the amyloid precursor protein (mutated APP KM670/671NL) and of presenilin 1 (mutated PS1 L166P) under the control of the neural promoter Thy1. The presence of these two mutations allows increased production of the Aβ peptide from the 14th postnatal day. This leads to cerebral amyloidosis with the appearance of the first senile plaques around 8 postnatal weeks. This amyloid pathology is accompanied by inflammatory gliosis (microgliosis and astrogliosis detectable from 4 months), dendritic spine dystrophy and tau hyperphosphorylation (around 8 months). Cognitive behavioral disorders, and in particular of learning and spatial memory, are developed in around 6 to 8 months. This model was set-up and described by Rebecca Radde in 2006 (Radde et al., EMBO reports, 2006) and is widely used by the scientific community. This model is available in the animal facility of the Institut des Neurosciences de Grenoble and has been bred by the inventors since 2014. This solution is then diluted to 1 μg/μl in an isotonic solution containing 1% Pluronic F-127 and 0.9% NaCl. The animals are injected daily intraperitoneally at a dose of 5 mg/kg of body mass. Sterile 0.5 ml BD MicroFine syringes with no dead volume, equipped with a 30G (0.3 mm) needle are used for the injections. The carrier (10% DMSO, 1% Pluronic F-127, 0.9% NaCl) is used as a control and is also injected daily, according to the same procedure, into the WT and APP/PS1 control animals (carrier groups). The injection is started from the 14th postnatal day (appearance of the expression of the Thy1gene promoter in the hippocampus, triggering the overexpression of Aβ in the APP/PS1-21 murine model) Coronal sections of the hippocampus (thickness 300 μm) were prepared from APP/PS1-21 transgenic mice (1 month and 3 months old) or from WT mice from the same litter. The mice were sacrificed by decerebration and decapitation. The brain was quickly removed and sectioned in ice-cold ACSF containing (in mM) : 2.5 KCl, 7 MgCl2, 0.5 CaCl2, 1.2 NaHPO4, 25 NaHCO3, 11D-glucose and 234 sucrose bubbled with 95% of O2 and 5% of CO2 with a V[…] vibratome (Leica, Germany). The sections containing the hippocampus were placed in ACSF containing (in mM) : 126 NaCl, 2.5 KCl, 1.2 MgCl2, 2.5 CaCl2, 1.2 NaH2PO4 bubbled with 95% of O2 and 5% of CO2 and supplemented with 1 mM of sodium pyruvate at room temperature for a recovery period. Whole-cell recordings were performed on visually identified CA1 pyramidal neuron somas. The patch pipettes (4-6 MΩ) were filled with an internal solution containing (in mM): 105 K-gluconate, 30 KCL, 10 phosphocreatine, 10 HEPES, 4 ATP-Mg, 0.3 GTP-Tris, 0.3 EGTA, adjusted to pH 7.2 with KOH. Spontaneously excitatory postsynaptic currents (sEPSCs) were collected at a membrane holding potential of -60 mV which is close to the GABA reversal potential. All recordings were made at room temperature (22-24° C.) and only a single neuron was studied per section. The sEPSCs and their kinetics were analyzed, after a stabilization period of 10 minutes, 5 minutes from the recordings. Access resistance was constantly monitored and recordings were excluded from this study when this parameter varied more than 20% during the experiment. Recordings were analyzed using the Clampfit module of pClamp8 software (Molecular Devices, USA) with a single one at 20 pA to exclude miniature sEPSCs.

[2] = tested on: trigeminal neuropathy-like pain behaviors; conditions: mice, subcutaneous (100 μg/10 μl) or intragastric (300 mg/kg); Trevisan et al. 2016; cited from earlier work
[3] = APP/PS1-21 mice, 5 mg/kg i.p. daily from 14th postnatal day
[4] = WT control mice, chronic treatment
[5] = APP/PS1-21 mice, 3 months, 5 mg/kg i.p. from 14th postnatal day
[6] = WT mice, 3 months, chronic treatment 5 mg/kg i.p.

## CC(C)c1ccc(NC(=O)Cn2cnc3c2c(=O)n(C)c(=O)n3C)cc1 [HC030031, 2-(1,3-Dimethyl-2,6-dioxo-1,2,3,6-tetrahydro-7H-purin-7-yl)-N-(4-isopropylphenyl)acetamide]
APP/PS1-21 and WT mice; [3]
  area under the curve for latency to reach the escape box (learning phase, working memory): 595.9±77.2
  first latency to the target area during the trial (reference memory): 18.5 ± 4.2 s
APP/PS1-21 and WT mice; [4]
  reference memory performance: no impact
  working memory performance: no impact
Rodent forms of TRPA1
  IC50: 7.6 µM
[1]; 1-month old mice, 5 mg/kg i.p. daily from 14th postnatal day
  sEPSC amplitude: no impact
[1]; [5]
  amplitude of sEPSCs: 33.4±1.4 pA
  frequency of sEPSCs: 0.10±0.01 Hz
[1]; APP/PS1-21 transgenic mice, 1 month, 5 mg/kg i.p. daily from 14th postnatal day
  frequency of sEPSCs: 0.10±0.02 Hz
[1]; WT litter mice, 1 month, 5 mg/kg i.p. daily from 14th postnatal day
  frequency of sEPSCs: 0.10±0.04 Hz
[1]; [6]
  amplitude of the sEPSCs: no effect
  frequency of the sEPSCs: no effect
[2]
  trigeminal neuropathy-like pain behaviors: abolished
